Test results from patent US20240197761A1, “FUCOSYLATION AND IMMUNE MODULATION IN CANCER” (H. LEE MOFFITT CANCER CENTER AND RESEARCH INSTITUTE, INC., priority 2021, published 2024).

System: SW1 tumors
Test: Immunodepletion mouse model (CD4+ or CD8+ T cell depletion), SW1
Type: in vivo, C3H/HeN mice
Excerpt: Total TILs were gated first to single cells (based on forward scatter height vs width, followed by side scatter height vs. width). Live cells were gated from the Zombie negative population from the population above. TILs were gated based on splenocyte size from a control spleen. Individual immune subpopulations were sub-gated from the total TIL population using the following staining criteria: CD3+ for CD3+ T cells; CD3+/CD4+/CD8− for CD4+T cells; CD3+/CD4−/CD8+ for CD8+ T cells, CD11c+/CD11b+ for DCs; either NK1.1 (for C57/BL6 mice) or DX5 (for C3H/HeJ) for NK cells; CD11b+/GR1+ for MDSC-like cells; and F4/80+ for macrophages. Single-cell suspensions from tumor and spleen tissue were stained with Live/Dead Zombie NIR (Biolegend, (San Diego, CA)) at 1:1,000 in PBS for 20 min. Cell suspensions were spun down and stained with the following with antibodies at 0.5 μg/ml per antibody: APC anti-mouse CD3, Pacific Blue anti-mouse CD4, BV785 anti-mouse CD8, PerCP anti-mouse CD25, FITC anti-mouse F4/80, PeCy7 anti-mouse CD11c, PE anti-mouse NK1.1 or PE anti-mouse DX5, and PerCP-Cy5.5 anti-mouse CD11 b. After staining, the cells were washed and fixed (2% formaldehyde), followed by another wash and flow cytometric analysis. The compensation controls were prepared using 0.5 μg/mL of each antibody with UltraComp eBeads, (ThermoFisher Scientific (Waltham, MA)). All samples were subject to flow cytometric profiling using a LSR Flow Cytometer (BD Biosciences (San Jose, CA)) and analysis as indicated using FlowJo software (BD Biosciences (San Jose, CA)).
All animals were housed at the Vincent A. Stabile Research building animal facility at H. Lee Moffitt Cancer Center & Research Institute, which is fully accredited by the Association for Assessment and Accreditation of Laboratory Animal Care International (AAALAC, #434), and are managed in accordance with the Guide for the Care and Use of Laboratory Animals (“The Guide”), the Animal Welfare Regulations Title 9 Code of Federal Regulations Subchapter A, “Animal Welfare”, Parts 1-3 (AWR), the Public Health Service Policy on Humane Care and Use of Laboratory Animals (PHS Policy), and by the USF Institutional Animal Care and Use Committee's Principles and Procedures of Animal Care and Use (IACUC Principles). The experiments and protocols detailed in this study received institutional approval by the Moffitt IACUC (RIS00001625). Four-to-six-week-old female C3H/HeN and male C57BL6 mice were purchased from Charles Rivers Laboratories for the indicated experiments. Four-to-six-week-old male NSG mice from the Lau laboratory breeding colony were used for the indicated experiments. […] Mouse tumor volumes were measured using length, width and depth divided by 2. […]

## C[C@H](O)[C@@H](O)[C@@H](O)[C@H](O)C=O [L-fucose]
CD4+T cell depletion
  reduction of tumor growth: completely abrogated
CD4+T cell-depletion
  L-fuc-induced increases in total itICs (incl. NK, DC, CD8+T cells): blocked
CD8+T cell-depleted mice
  reduction of tumor growth: > 50%
Control (PBS-injected) mice
  reduction of tumor growth: > 50%
